From patent publication US10512266B2, “Herbicidal compositions based on 3-phenyluracils and N-[[4-[cyclopropylamino)-carbonyl]phenyl]sulfonyl]-2-methoxybenzamide” (BASF SE, priority 2005, dated 2019)

Assays:
Conditions in all cases: safener II alone, 150 g/ha
[1] = system: TRZAS; experiment: Greenhouse post-emergence test, damage to crop plant TRZAS; assay type: in vivo, spring wheat
Source text: (§1) For the post-emergence treatment, the test plants were first grown to a height of 3 to 20 cm, depending on the plant habit, and only then treated. Here, the herbicidal compositions were suspended or emulsified in water as distribution medium and sprayed using finely distributing nozzles. The respective component I was formulated as a 12% by weight strength emulsion concentrate, and component II as a 10% by weight suspension concentrate. Optionally components III can be used in their appropriate available formulation types. The components I, II and optionally III were introduced to the spray liquid with the amount of solvent system used for applying the active compound. The test period extended over 21 days. During this time, the plants were tended, and their response to the treatments with active compound was evaluated. The evaluation for the damage caused by the chemical compositions was carried out using a scale from 0 to 100%, compared to the untreated control plants. Here, 0 means no damage and 100 means complete destruction of the plants. […]

[2] = system: HORVW; experiment: Greenhouse post-emergence test, damage to crop plant HORVW; assay type: in vivo, winter barley
Source text: as §1

[3] = system: ZEAMX; experiment: Greenhouse post-emergence test, damage to crop plant ZEAMX; assay type: in vivo, corn
Source text: as §1

[4] = system: POLCO; experiment: Greenhouse post-emergence test, herbicidal action against POLCO; assay type: in vivo, wild buckwheat
Source text: (§2) For the post-emergence treatment, the test plants were first grown to a height of 3 to 20 cm, depending on the plant habit, and only then treated. Here, the herbicidal compositions were suspended or emulsified in water as distribution medium and sprayed using finely distributing nozzles. The respective component I was formulated as a 12% by weight strength emulsion concentrate, and component II as a 10% by weight suspension concentrate. Optionally components III can be used in their appropriate available formulation types. The components I, II and optionally III were introduced to the spray liquid with the amount of solvent system used for applying the active compound. The test period extended over 21 days. During this time, the plants were tended, and their response to the treatments with active compound was evaluated. The evaluation for the damage caused by the chemical compositions was carried out using a scale from 0 to 100%, compared to the untreated control plants. Here, 0 means no damage and 100 means complete destruction of the plants. [table]

[5] = system: CHEAL; experiment: Greenhouse post-emergence test, herbicidal action against CHEAL; assay type: in vivo, lambsquaters
Source text: as §2

[6] = system: ABUTH; experiment: Greenhouse post-emergence test, herbicidal action against ABUTH; assay type: in vivo, velvetleaf
Source text: as §2

[7] = system: AMARE; experiment: Greenhouse post-emergence test, herbicidal action against AMARE; assay type: in vivo, common amaranth
Source text: as §2

## COc1ccccc1C(=O)NS(=O)(=O)c1ccc(C(=O)NC2CC2)cc1 [II, N-[[4-[(cyclopropylamino)carbonyl]phenyl]sulfonyl]-2-methoxybenzamide]
[1]
  damaging effect on TRZAS: has not shown damaging effect
[2]
  damaging effect on HORVW: has not shown damaging effect
[3]
  damaging effect on ZEAMX: has not shown damaging effect
[4]
  herbicidal activity on POLCO: has not shown herbicidal activity
[5]
  herbicidal activity on CHEAL: has not shown herbicidal activity
[6]
  herbicidal activity on ABUTH: has not shown herbicidal activity
[7]
  herbicidal activity on AMARE: has not shown herbicidal activity
